Laboratory results taken from patent publication US20260199309A1, “COMPOUNDS FOR THE TREATMENT OF CENTRA NERVOUS SYSTEM DISORDERS” (Autifony Therapeutics Limited, priority 2022, published 2026).

These compounds were tested against T1, CYP2C8 (Homo sapiens, UniProt P10632) (assay: CYP450 inhibition, Vivid Baculosomes (2C8/DBOMF)). Conditions: recombinant human CYP450 Baculosomes, substrate DBOMF; top concentration 5.00E-05.
T1 construct: purchased
T1 sequence (P10632 1-490): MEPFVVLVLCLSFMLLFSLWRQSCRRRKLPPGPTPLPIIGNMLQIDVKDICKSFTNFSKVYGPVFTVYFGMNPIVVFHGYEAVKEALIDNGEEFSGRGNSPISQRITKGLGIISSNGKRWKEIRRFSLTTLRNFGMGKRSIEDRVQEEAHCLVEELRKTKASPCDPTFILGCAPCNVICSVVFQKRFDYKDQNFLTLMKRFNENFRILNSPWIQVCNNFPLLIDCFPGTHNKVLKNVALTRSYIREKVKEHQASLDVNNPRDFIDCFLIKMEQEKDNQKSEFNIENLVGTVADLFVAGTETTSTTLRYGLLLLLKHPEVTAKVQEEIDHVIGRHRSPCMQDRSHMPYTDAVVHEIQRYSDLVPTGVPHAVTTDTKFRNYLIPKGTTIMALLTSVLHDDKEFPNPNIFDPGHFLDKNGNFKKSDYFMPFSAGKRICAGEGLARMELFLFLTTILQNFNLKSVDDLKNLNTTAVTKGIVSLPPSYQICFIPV
Type: in vitro ADME
Excerpt: The method uses recombinant human CYP450 to metabolize pro-fluorescent probe substrates to fluorescent products. IC50 values for the effect of test compounds on the metabolism of these probe substrates provides a measure of the potency of inhibition of individual CYP450 isoforms.
The described assays measure in vitro inhibitory effects (pIC50) of compounds at the human P450 isoforms (1A2, 2C8, 2C9, 2C19, 2D6, 3A4) expressed in recombinant microsomes. Pro-fluorescent probe substrates are metabolized to fluorescent products by the enzymes.
Fluorescence is measured in kinetic mode (1 read/min for 10 min) and the fluorescence rate is calculated. Data are normalized to controls: DMSO represents 0% effect (i.e. no inhibition), while 10 μM Miconazole is set to 100% effect (i.e. complete inhibition).
Inhibition of the fluorescent signal determined by P450 […] indicates antagonist activity of the compound and allows for the calculation of the compound plC50.
CRCs of compounds are run on two different test occasions (n=2) by preparing serial dilutions from the same compound stock solution. Details of the solutions are outlined in Table 6:
Test compound serial dilutions 1 to 3 were performed from a 10 mM stock solution in DMSO by Biomek FX to generate 10 point CRC. 100% DMSO was used for assay low controls. 10 mM (2 mM for 3A4/DBOMF, 2C8/DBOMF assay only) miconazole solution in DMSO was used as assay high controls. The final concentrations of the 10 point CRCs of test compounds in the assay plate were 5.00E-05; 1.67E-05; 5.56E-06; 1.85E-06; 6.17E-07; 2.06E-07; 6.86E-08; 2.29E-08; 7.62E-09 and 2.54E-09, respectively.
The CYP3A4 and CYP2C8 were assayed using the Vivid CYP3A4 Baculosomes, CYP2C8 Baculosomes and Vivid DBOMF Substrate. […]
10 μl/well from compound plate was added and incubated for 10 min at 37° C. on a plate shaker. […] The plate was transferred into the fluorescent plate reader (EnVision, Wallac) immediately within 2 min and monitor fluorescence every minute for 10 (Excitation 485, Emission 535 and Mirror 505 FITC). […]
The inhibition effect was expressed as percentage. […]

| Structure (SMILES) | IC50 |
| --- | --- |
| Cc1ccc(Oc2ccc(N3C(=O)NC(C)(C)C3=O)c(N)n2)c2c1OCC21CC1 [Example 1, 3-[2-amino-6-(7-methylspiro[2H-benzofuran-3,1′-cyclopropane]-4-yl)oxy-3-pyridyl]-5,5-dimethyl-imidazolidine-2,4-dione] | 8.9 µM |
| COc1nc(Oc2ccc(C)c3c2C2(CC2)CO3)ccc1N1C(=O)NC(C)(C)C1=O [Reference Example 2, reference compound] | 2.3 µM |
| CC1(C)NC(=O)N(c2ccc(Oc3cccc(OC(F)(F)F)c3)nc2N)C1=O [Example 9, 3-[2-amino-6-[3-(trifluoromethoxy)phenoxy]-3-pyridyl]-5,5-dimethyl-imidazolidine-2,4-dione] | > 50 µM |
